Laboratory results reported in the supplement of paper PMC11061612.

Columns and labels:
[1] = system: TE-10 (Esophageal Squamous Cell Carcinoma); test: combination Emax (second highest fraction inhibited in the dose matrix, 72 h); higher = more inhibition; extreme values may be limits of the assay
How it was run: (§1)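 Cell lines in DMEM/F12 or RPMI with 10% FBS were plated in 1536-well plates, held 24 hours at 37°C, 5% CO2, then given two-drug dose matrices for 72 hours (DMSO typically 0.2%). Viability was read by CellTiter-Glo 2.0 luminescence and scaled as inhibition from 0 (vehicle wells) to 1 (blank wells). Combination Emax is the second-highest inhibition in the matrix; Bliss excess is observed combination effect minus expected EA + EB − EA·EB, EA and EB being single-agent effects.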

[2] = system: CA46 (Burkitt's Lymphoma); test: as above
How it was run: as §1

[3] = system: SK-HEP-1 (Hepatocellular Carcinoma); test: as above
How it was run: as §1

[4] = system: G-402 (Other Solid Carcinomas); test: as above
How it was run: as §1

[5] = system: EPLC-272H (Other Solid Carcinomas); test: as above
How it was run: as §1

[6] = system: huH-1 (Hepatocellular Carcinoma); test: as above
How it was run: as §1

HCC70 (Breast Carcinoma) = test: as above
How it was run: as §1

769-P (Kidney Carcinoma) = test: as above
How it was run: as §1

[7] = system: SW620 (Colorectal Carcinoma); test: as above
How it was run: as §1

[8] = system: GCT (Other Solid Carcinomas); test: as above
How it was run: as §1

[9] = system: 22RV1 (Prostate Carcinoma); test: as above
How it was run: as §1

[10] = system: TE-10 (Esophageal Squamous Cell Carcinoma); test: Bliss excess, mean over the matrix (fraction); higher = more synergy
How it was run: as §1
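Wherever Bliss excess, mean over the matrix is given: after 72 h of two-drug dosing.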

| SMILES | combination Emax [1] | combination Emax [2] | combination Emax [3] | combination Emax [4] | combination Emax [5] | combination Emax [6] | combination Emax (HCC70 (Breast Carcinoma)) | combination Emax (769-P (Kidney Carcinoma)) | combination Emax [7] | combination Emax [8] | combination Emax [9] | Bliss excess [10] |
| --- | --- | --- | --- | --- | --- | --- | --- | --- | --- | --- | --- | --- |
| Cc1c2c(nn1C)CSCc1cc(n(C)n1)CSc1cc(c3ccccc3c1)OCCCc1c(C(=O)O)n(C)c3c-2c(Cl)ccc13 [AZD5991] + CC1(C)CCC(CN2CCN(c3ccc(C(=O)NS(=O)(=O)c4ccc(NCC5CCOCC5)c([N+](=O)[O-])c4)c(Oc4cnc5[nH]ccc5c4)c3)CC2)=C(c2ccc(Cl)cc2)C1 [Venetoclax] (first compound max 1 µM, 7x7, partner max 1 µM) | 0.886 | 0.118 | 0.45 | 0.926 | 0.901 | 0.162 | 0.938 | 0.122 | 0.191 | 0.288 | 0.462 | 0.0262 |
| Cc1c2c(nn1C)CSCc1cc(n(C)n1)CSc1cc(c3ccccc3c1)OCCCc1c(C(=O)O)n(C)c3c-2c(Cl)ccc13 [AZD5991] + CCN(CCO)CCCOc1ccc2c(Nc3cc(CC(=O)Nc4cccc(F)c4)[nH]n3)ncnc2c1 [AZD2811] (first compound max 1 µM, 7x7, partner max 1 µM) | 0.848 | 0.193 | 0.387 | 0.946 | 0.945 | 0.387 | 0.935 | 0.328 | 0.512 | 0.416 | 0.399 | -0.0161 |
| Cc1c2c(nn1C)CSCc1cc(n(C)n1)CSc1cc(c3ccccc3c1)OCCCc1c(C(=O)O)n(C)c3c-2c(Cl)ccc13 [AZD5991] + CN(C)CCCOc1ccc(-c2ccc3ncc4c(c3c2)n(C2CCOCC2)c(=O)n4C)cn1 [AZD0156] (first compound max 1 µM, 7x7, partner max 1 µM) | 0.84 | 0.294 | 0.281 | 0.965 | 0.936 | 0.24 | 0.86 | 0.243 | 0.294 | 0.502 | 0.476 | -0.055 |
| Cc1c2c(nn1C)CSCc1cc(n(C)n1)CSc1cc(c3ccccc3c1)OCCCc1c(C(=O)O)n(C)c3c-2c(Cl)ccc13 [AZD5991] + C[C@@H]1COCCN1C2=NC(=NC(=C2)C3(CC3)[S@](=N)(=O)C)C4=C5C=CNC5=NC=C4 [AZD6738] (first compound max 1 µM, 7x7, partner max 10 µM) | 0.901 | 0.449 | 0.354 | 0.995 | 0.993 | 0.623 | 0.967 | 0.797 | 0.543 | 0.411 | 0.71 | -0.0332 |
| Cc1c2c(nn1C)CSCc1cc(n(C)n1)CSc1cc(c3ccccc3c1)OCCCc1c(C(=O)O)n(C)c3c-2c(Cl)ccc13 [AZD5991] + C[C@@H](Nc1cc(F)cc(F)c1)c1cc(C(=O)N(C)C)cc2c(=O)cc(N3CCOCC3)oc12 [AZD8186] (first compound max 1 µM, 7x7, partner max 3 µM) | 0.891 | 0.167 | 0.356 | 0.942 | 0.916 | 0.192 | 1 | 0.223 | 0.206 | 0.454 | 0.48 | 0.0078 |
| Cc1c2c(nn1C)CSCc1cc(n(C)n1)CSc1cc(c3ccccc3c1)OCCCc1c(C(=O)O)n(C)c3c-2c(Cl)ccc13 [AZD5991] + Cc1cc2ncnn2cc1Nc1ncc2c(n1)n(C1CCOCC1)c(=O)n2C [AZD7648] (first compound max 1 µM, 7x7, partner max 10 µM) | 0.855 | 0.281 | 0.295 | 0.939 | 0.94 | 0.337 | 0.926 | 0.32 | 0.213 | 0.352 | 0.575 | -0.0057 |
| Cc1c2c(nn1C)CSCc1cc(n(C)n1)CSc1cc(c3ccccc3c1)OCCCc1c(C(=O)O)n(C)c3c-2c(Cl)ccc13 [AZD5991] + Cn1cnc2c(F)c(Nc3ccc(Br)cc3Cl)c(C(=O)NOCCO)cc21 [Selumetinib] (first compound max 1 µM, 7x7, partner max 3 µM) | 0.899 | 0.0912 | 0.311 | 0.955 | 0.94 | 0.152 | 0.994 | 0.227 | 0.643 | 0.427 | 0.498 | 0.0198 |
| C[C@@H]1COCCN1c1cc(C2([S@](C)(=N)=O)CC2)nc(-c2ccnc3[nH]ccc23)n1 [AZD6738] + O=C(c1cc(Cc2n[nH]c(=O)c3ccccc23)ccc1F)N1CCN(C(=O)C2CC2)CC1 [Olaparib] (first compound max 10 µM, 7x7, partner max 10 µM) | 0.78 | 0.412 | 0.498 | 0.627 | 0.824 | 0.685 | 0.722 | 0.756 | 0.57 | 0.392 | 0.631 | -0.0141 |
| COc1cccc2c1C(=O)c1c(O)c3c(c(O)c1C2=O)C[C@@](O)(C(=O)CO)C[C@@H]3O[C@H]1C[C@H](N)[C@H](O)[C@H](C)O1 [Doxorubicin] + Cc1cc2ncnn2cc1Nc1ncc2c(n1)n(C1CCOCC1)c(=O)n2C [AZD7648] (first compound max 1 µM, 7x7, partner max 10 µM) | 0.746 | 0.777 | 0.872 | 0.949 | 0.539 | 0.55 | 0.488 | 0.706 | 0.787 | 0.625 | 0.805 | 0.0583 |
| COc1cccc(OCCCN)c1-c1cc(Nc2cnc(C#N)cn2)n[nH]1 [Prexasertib] + C=CCn1c(=O)c2cnc(Nc3ccc(N4CCN(C)CC4)cc3)nc2n1-c1cccc(C(C)(C)O)n1 [AZD1775] (first compound max 1 µM, partner max 1 µM) | 0.976 | 0.757 | 0.65 | 0.731 | 0.914 | 0.811 | 0.955 | 0.867 | 0.853 | 0.644 | 0.619 | 0.0262 |
| COc1cccc(OCCCN)c1-c1cc(Nc2cnc(C#N)cn2)n[nH]1 [Prexasertib] + CCc1c2c(nc3ccc(O)cc13)-c1cc3c(c(=O)n1C2)COC(=O)[C@]3(O)CC [SN-38] (first compound max 1 µM, 7x7, partner max 0.3 µM) | 0.939 | 0.837 | 0.761 | 0.868 | 0.922 | 0.767 | 0.944 | 0.789 | 0.975 | 0.842 | 0.727 | -0.0428 |
| COc1cccc(OCCCN)c1-c1cc(Nc2cnc(C#N)cn2)n[nH]1 [Prexasertib] + CN(C)CCCOc1ccc(-c2ccc3ncc4c(c3c2)n(C2CCOCC2)c(=O)n4C)cn1 [AZD0156] (first compound max 1 µM, 7x7, partner max 1 µM) | 0.938 | 0.745 | 0.379 | 0.562 | 0.924 | 0.756 | 0.922 | 0.898 | 0.696 | 0.324 | 0.532 | -0.0174 |
| COc1cccc(OCCCN)c1-c1cc(Nc2cnc(C#N)cn2)n[nH]1 [Prexasertib] + C[C@@H]1COCCN1C2=NC(=NC(=C2)C3(CC3)[S@](=N)(=O)C)C4=C5C=CNC5=NC=C4 [AZD6738] (first compound max 1 µM, 7x7, partner max 10 µM) | 0.945 | 0.599 | 0.462 | 0.605 | 0.942 | 0.762 | 0.908 | 0.837 | 0.744 | 0.315 | 0.655 | -0.0244 |
| COc1cccc(OCCCN)c1-c1cc(Nc2cnc(C#N)cn2)n[nH]1 [Prexasertib] + Cc1cc2ncnn2cc1Nc1ncc2c(n1)n(C1CCOCC1)c(=O)n2C [AZD7648] (first compound max 1 µM, 7x7, partner max 10 µM) | 0.938 | 0.653 | 0.296 | 0.58 | 0.918 | 0.762 | 0.922 | 0.819 | 0.698 | 0.36 | 0.575 | -0.0604 |
| COc1cccc(OCCCN)c1-c1cc(Nc2cnc(C#N)cn2)n[nH]1 [Prexasertib] + O=C(c1cc(Cc2n[nH]c(=O)c3ccccc23)ccc1F)N1CCN(C(=O)C2CC2)CC1 [Olaparib] (first compound max 1 µM, 7x7, partner max 10 µM) | 0.892 | 0.464 | 0.338 | 0.524 | 0.894 | 0.778 | 0.939 | 0.751 | 0.711 | 0.633 | 0.516 | -0.105 |
| CCc1c2c(nc3ccc(O)cc13)-c1cc3c(c(=O)n1C2)COC(=O)[C@]3(O)CC [SN-38] + CN(C)CCCOc1ccc(-c2ccc3ncc4c(c3c2)n(C2CCOCC2)c(=O)n4C)cn1 [AZD0156] (first compound max 0.3 µM, 7x7, partner max 1 µM) | 0.725 | 0.758 | 0.63 | 0.745 | 0.755 | 0.762 | 0.2 | 0.716 | 0.883 | 0.683 | 0.683 | 0.0444 |
| CC(=O)Nc1cccc(-n2c(=O)n(C3CC3)c(=O)c3c(Nc4ccc(I)cc4F)n(C)c(=O)c(C)c32)c1 [Trametinib] + Cc1nc(-c2cn3c(n2)-c2ccc(-c4cnn(C(C)(C)C(N)=O)c4)cc2OCC3)n(C(C)C)n1 [Taselisib] (first compound max 1 µM, 7x7, partner max 10 µM) | 0.965 | 0.434 | 0.561 | 0.792 | 1 | 0.688 | 1 | 0.681 | 0.77 | 0.764 | 0.704 | 0.127 |
| CC1(C)CCC(CN2CCN(c3ccc(C(=O)NS(=O)(=O)c4ccc(NCC5CCOCC5)c([N+](=O)[O-])c4)c(Oc4cnc5[nH]ccc5c4)c3)CC2)=C(c2ccc(Cl)cc2)C1 [Venetoclax] + C1CN(CCC1(C(=O)N[C@@H](CCO)C2=CC=C(C=C2)Cl)N)C3=NC=NC4=C3C=CN4 [Capivasertib] (first compound max 1 µM, 7x7, partner max 3 µM) | 0.506 | 0.112 | 0.168 | 0.425 | 0.562 | 0.2 | 0.686 | 0.241 | 0.151 | 0.426 | 0.484 | -0.04 |
